Measured values: ChEMBL document CHEMBL5346859, “Dual-target Janus kinase (JAK) inhibitors: Comprehensive review on the JAK-based strategies for treating solid or hematological malignancies and immune-related diseases” (Eur J Med Chem, 2022)

Key:
MV4-11 = experiment: Antitumor activity against human MV4-11 cells harboring FLT3 […] mutant xenografted acute myeloid leukemia BALB/c mouse model assessed as tumor growth inhibition at 40 mg/kg, po qd administered daily for 21 days relative to control; type: functional; conditions: MV4-11, 504 h, time 21 day, read-out: TGI
[1] = target: T1, Tyrosine-protein kinase JAK2 (Homo sapiens, UniProt O60674); experiment: Inhibition of JAK2 (unknown origin) using FAM-labeled peptide as substrate preincubated with compound for 10 mins followed by substrate addition and measured after 60 mins in presence of ATP
T1 sequence (O60674 whole entry): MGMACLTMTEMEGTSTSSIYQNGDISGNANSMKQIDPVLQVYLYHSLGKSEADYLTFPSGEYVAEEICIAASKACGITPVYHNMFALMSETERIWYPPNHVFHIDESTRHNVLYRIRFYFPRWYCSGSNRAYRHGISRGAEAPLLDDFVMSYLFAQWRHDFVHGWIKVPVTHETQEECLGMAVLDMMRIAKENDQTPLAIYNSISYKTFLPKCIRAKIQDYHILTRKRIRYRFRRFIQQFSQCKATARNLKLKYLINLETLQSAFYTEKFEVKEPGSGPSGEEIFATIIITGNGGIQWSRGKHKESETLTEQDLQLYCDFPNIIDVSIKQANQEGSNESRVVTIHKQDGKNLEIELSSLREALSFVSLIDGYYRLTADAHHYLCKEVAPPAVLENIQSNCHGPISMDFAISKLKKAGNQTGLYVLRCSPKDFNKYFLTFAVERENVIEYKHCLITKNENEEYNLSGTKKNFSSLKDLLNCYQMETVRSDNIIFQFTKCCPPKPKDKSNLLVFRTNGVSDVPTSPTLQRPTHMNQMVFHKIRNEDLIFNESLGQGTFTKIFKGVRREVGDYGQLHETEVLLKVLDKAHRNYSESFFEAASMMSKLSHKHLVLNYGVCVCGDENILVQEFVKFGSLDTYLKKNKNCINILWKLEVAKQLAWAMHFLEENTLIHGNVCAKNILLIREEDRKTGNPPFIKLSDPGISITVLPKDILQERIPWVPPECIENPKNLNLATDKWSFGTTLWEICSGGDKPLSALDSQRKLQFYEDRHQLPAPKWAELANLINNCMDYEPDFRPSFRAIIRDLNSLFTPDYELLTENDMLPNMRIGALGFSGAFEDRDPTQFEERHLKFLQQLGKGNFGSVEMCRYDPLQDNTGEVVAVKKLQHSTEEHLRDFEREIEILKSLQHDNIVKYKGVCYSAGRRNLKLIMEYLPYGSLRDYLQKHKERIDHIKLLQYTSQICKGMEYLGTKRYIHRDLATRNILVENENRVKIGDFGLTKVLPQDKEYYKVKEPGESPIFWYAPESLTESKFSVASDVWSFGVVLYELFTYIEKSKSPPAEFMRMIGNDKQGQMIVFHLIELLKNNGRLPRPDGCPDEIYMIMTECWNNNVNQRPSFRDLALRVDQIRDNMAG

[2] = target: T2, Receptor-type tyrosine-protein kinase FLT3 (Homo sapiens, UniProt P36888); experiment: Inhibition of FLT3 (unknown origin) using FAM-labeled peptide as substrate preincubated with compound for 10 mins followed by substrate addition and measured after 60 mins in presence of ATP
T2 sequence (P36888 whole entry): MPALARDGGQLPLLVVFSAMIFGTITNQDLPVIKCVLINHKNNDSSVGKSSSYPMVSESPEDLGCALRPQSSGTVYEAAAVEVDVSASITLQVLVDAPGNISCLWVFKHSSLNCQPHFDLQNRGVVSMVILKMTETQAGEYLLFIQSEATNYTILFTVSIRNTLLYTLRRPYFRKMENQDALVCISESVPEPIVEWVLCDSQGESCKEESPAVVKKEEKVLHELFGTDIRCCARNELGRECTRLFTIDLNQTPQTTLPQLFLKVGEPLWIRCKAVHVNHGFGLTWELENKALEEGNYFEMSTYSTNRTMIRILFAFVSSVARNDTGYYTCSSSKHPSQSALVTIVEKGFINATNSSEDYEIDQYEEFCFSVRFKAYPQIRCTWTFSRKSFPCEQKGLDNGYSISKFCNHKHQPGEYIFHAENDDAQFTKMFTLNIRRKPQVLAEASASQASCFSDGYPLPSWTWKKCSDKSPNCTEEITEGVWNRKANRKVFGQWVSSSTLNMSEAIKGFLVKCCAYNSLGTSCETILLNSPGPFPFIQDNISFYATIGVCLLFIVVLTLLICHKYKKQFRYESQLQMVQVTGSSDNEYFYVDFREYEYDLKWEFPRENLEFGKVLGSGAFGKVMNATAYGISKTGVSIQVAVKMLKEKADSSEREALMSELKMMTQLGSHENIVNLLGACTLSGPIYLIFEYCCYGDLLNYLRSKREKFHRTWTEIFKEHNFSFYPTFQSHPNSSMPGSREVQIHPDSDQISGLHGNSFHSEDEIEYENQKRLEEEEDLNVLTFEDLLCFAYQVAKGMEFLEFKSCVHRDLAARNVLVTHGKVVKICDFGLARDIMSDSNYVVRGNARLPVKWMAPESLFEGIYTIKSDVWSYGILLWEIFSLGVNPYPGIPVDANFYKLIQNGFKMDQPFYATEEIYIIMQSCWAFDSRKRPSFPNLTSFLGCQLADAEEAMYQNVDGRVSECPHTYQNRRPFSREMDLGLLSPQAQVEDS

HEL = experiment: Antiproliferative activity against HEL cells assessed as inhibition of cell growth incubated for 48 hrs by CCK-8 assay; type: functional, cell-based; conditions: Homo sapiens
MOLM-13 [3] = experiment: Antiproliferative activity against human MOLM-13 cells assessed as inhibition of cell growth incubated for 48 hrs by CCK-8 assay; type: functional, cell-based; conditions: MOLM-13, 48 h
[4] = Metabolic stability in rat liver microsomes assessed as half life by LC-MS/MS analysis; type: ADME, Microsome
MOLM-13 [5] = experiment: Antitumor activity against human MOLM-13 cells xenografted mouse model assessed as tumor growth inhibition at 150 mg/kg administered for 7 days relative to control; type: functional; conditions: MOLM-13, 168 h, time 7 day, read-out: TGI
BaF3 [6] = experiment: Antitumor activity against mouse BaF3 cells harboring JAK2 V617F mutant implanted in BALB/c mouse model assessed as normalization rate of spleen weight at 150 mg/kg, po qd administered from day 4 post infection and measured after 14 days relative to control; type: functional; conditions: time 10 day
BaF3 [7] = experiment: Antitumor activity against mouse BaF3 cells harboring JAK2 V617F mutant implanted in BALB/c mouse model assessed as normalization rate of liver weight at 150 mg/kg, po qd administered from day 4 post infection and measured after 14 days relative to control; type: functional; conditions: time 10 day
[8] = target: T1, Tyrosine-protein kinase JAK2
[9] = target: T2, Receptor-type tyrosine-protein kinase FLT3
[10] = target: T1, Tyrosine-protein kinase JAK2; experiment: Inhibition of recombinant human JAK2 (808 to end residues) using biotinylated TK substrate in presence of [33P]ATP

SMILES: CN1C/C=C/CCOc2cccc(c2)-c2ccnc(n2)Nc2cccc(c2)C1 [ZOTIRACICLIB]
- inhibition in vivo at 40 mg/kg (MV4-11): 113%

SMILES: CC(=O)c1ccc(NC(=O)N2CCN(c3nc(Nc4ccc(N5CCOCC5)cc4)ncc3Cl)CC2)cc1
- IC50 [1]: 1.8 nM
- IC50 [2]: 0.68 nM
- IC50 (HEL): 500 nM
- IC50 (MOLM-13 [3]): 19 nM
- half-life [4]: 31 min

SMILES: CC(=O)c1ccc(NC(=O)N2CCN(c3ccnc(Nc4ccc(N5CCOCC5)cc4)n3)CC2)cc1
- IC50 [1]: 2.9 nM
- IC50 [2]: 1.4 nM

SMILES: C1=N/C2=N/c3ccc(OCCN4CCCC4)c(c3)COC/C=C/COCc3cccc(c3)C(=C1)N2 [PACRITINIB]
- inhibition in vivo at 150 mg/kg (MOLM-13 [5]): 83%
- Activity (BaF3 [6]): 42%
- Activity (BaF3 [7]): 99%

SMILES: COc1ccc2cc1COC/C=C/COCc1cccc(c1)-c1ccnc(n1)N2
- IC50 [8]: 70 nM
- IC50 [9]: 190 nM

SMILES: C[C@H]1CC(C(=O)CC#N)[C@]12CCN(c1ncnc3[nH]ccc13)C2 (some centres undefined)
- IC50 [10]: 2.6 nM
